In paper PMC12386811, “Novel Carbazole–Thiazole Conjugates: Synthesis and Biophysical Characterization” (International Journal of Molecular Sciences, 2025):

Columns and labels:
[1] = target: mushroom tyrosinase (Agaricus bisporus, UniProt C7FF04); assay: Kinetic analysis of the inhibition of tyrosinase (Lineweaver–Burk plots); format: biochemical; details: inhibitor 0.05 and 0.1 mM, L-DOPA 0.1–0.25 mM
Experimental: Based on the Lineweaver–Burk double reciprocal plots, the inhibition mode for the three investigated compounds was established as mixed-type inhibition, i.e., the type of enzyme inhibition in which the inhibitor may bind to the enzyme regardless of whether or not the enzyme has already bound the substrate. […].
A series of experiments were performed to determine the inhibition kinetics of tested carbazoles by following the already reported method. The inhibitor concentrations for tested carbazoles were 0.05 and 0.1 mM. Substrate L-DOPA concentration was between 0.1 and 0.25 mM in all kinetic studies. Maximal initial velocity was determined from the initial linear portion of absorbance up to ten minutes after addition of enzyme. The inhibition type of the enzyme, Michaelis constant (Km) and maximal velicity (Vmax), were determined by Lineweaver–Burk plots of inverse of velocities (1/V) versus inverse of substrate concentration 1/[L-DOPA] mM^−1.

[2] = Thermogravimetric analysis (thermal stability); format: physicochemical; details: TGA, 15 °C/min under nitrogen
Experimental: Thermogravimetric analysis (TGA) allowed obtaining of thermal stability results for the presented compounds (K1–K3). For all derivatives, the temperature of 5% (T5) and 10% (T10) mass loss as well as the temperature of complete decomposition (Tmax) were determined. Referring to the T5 for K1–K3, we can see that it is in the range of 222 °C to 244 °C. Such high values indicate the high durability of these compounds. Moreover, the functional group in the substituent has a negligible effect on thermal stability. The best thermal properties are those of K3 compound, containing the 4-nitrophenyl group. In the case of replacing this group with benzonitrile (K2), we observe a slight decrease in T5 (by 13 °C), T10 (by 19 °C), and only one stage of Tmax degradation. On the other hand, compound K1 has the lowest T5 (222 °C). It is most likely due to the aliphatic nature of the substituent. Comparing the discussed derivatives (K1–K3) to their analogs described in the literature, we can see a significant similarity in thermal properties, despite different functional groups in the substituents.
Thermogravimetric analysis was performed on Perkin Elmer Thermogravimetric Analyzer Pyris 1 TGA at a heating rate of 15 °C/min under nitrogen. The electronic spectra were measured on a ThermoScientific Evolution 220 UV/Vis spectrometer. Photoluminescence emission spectra were acquired using Hitachi Fluorescence Spectrophotometer F-7100 [19].

[3] = Dissolution in solvents for absorption/emission studies; format: physicochemical; details: non-polar toluene
Experimental: Absorption and emission studies were carried out for investigated compounds K1–K3 using solvents of different polarities. The presented molecules differ in the substituent in thiazole ring. To check the influence of the substituent in the discussed molecules, the tests were carried out on solutions with a concentration of 2.5 × 10^−5 mol/L. In the first step, absorption maxima (λabs) were determined. The measured data are shown in Table 3, Figure 3, Figures S1 and S2.
Each of the derivatives has at least two bands registered in the absorption spectra. The main bands between 320 and 370 nm can be attributed to the π→π* transition. The next one is the band […] 300 nm. In the case of the presented molecules, the solvatochromic effect associated with the polarity of the solvent is not observed in the absorption spectra. The same behavior is shown by the analogs described in the literature. In the next step, the emission maxima were determined. For the K3 molecule, spectra were recorded only in chloroform, ethanol, and DMSO. […] For the rest, λem was successfully determined in several solvents. By analyzing the fluorescence spectra, the influence of the polarity of the solvent on the obtained results can be observed. […] Moreover, the Stokes shift increases from non-polar to polar solvents (K3 30 nm, K1 69 nm, K2 70 nm). […]

mushroom tyrosinase, sequence (C7FF04 1-392): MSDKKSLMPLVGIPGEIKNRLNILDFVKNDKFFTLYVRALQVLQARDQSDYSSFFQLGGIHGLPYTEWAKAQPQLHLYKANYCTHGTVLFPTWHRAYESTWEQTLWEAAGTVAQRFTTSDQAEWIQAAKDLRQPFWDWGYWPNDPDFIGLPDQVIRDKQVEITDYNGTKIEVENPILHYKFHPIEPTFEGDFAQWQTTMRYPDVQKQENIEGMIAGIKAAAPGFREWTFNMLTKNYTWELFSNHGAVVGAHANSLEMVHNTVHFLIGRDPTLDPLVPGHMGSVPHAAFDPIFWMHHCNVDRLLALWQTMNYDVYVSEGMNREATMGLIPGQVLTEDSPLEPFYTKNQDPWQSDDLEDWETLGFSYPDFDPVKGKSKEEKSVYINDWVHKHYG

| Inhibitory Mechanism [1] | Vmax [1] | T5 (temperature at 5% weight loss) [2] | T10 (temperature at 10% weight loss) [2] | solubility in toluene [3] | SMILES |
| --- | --- | --- | --- | --- | --- |
| Mixed | 0.2608 mM/min | 222 °C | 279 °C | – | C(=N\Nc1nc(C23CC4CC(CC(C4)C2)C3)cs1)/c1ccc(-n2c3ccccc3c3ccccc32)cc1 [K1, (E)-2-(2-(4-(9H-carbazol-9-yl)benzylidene)hydrazinyl)-4-(1-adamantyl)thiazole] |
| Mixed | 0.4078 mM/min | 231 °C | 252 °C | – | N#Cc1ccc(-c2csc(N/N=C/c3ccc(-n4c5ccccc5c5ccccc54)cc3)n2)cc1 [K2, (E)-4-(2-(2-(4-(9H-carbazol-9-yl)benzylidene)hydrazinyl)thiazol-4-yl)benzonitrile] |
| Mixed | 0.4718 mM/min | 244 °C | 271 °C | did not dissolve | O=[N+]([O-])c1ccc(-c2csc(N/N=C/c3ccc(-n4c5ccccc5c5ccccc54)cc3)n2)cc1 [K3, (E)-2-(2-(4-(9H-carbazol-9-yl)benzylidene)hydrazinyl)-4-(4-nitrophenyl)thiazole] |
